The structures appear in SMILES notation.

The target of data set [1] is VEGFR-2 (Homo sapiens, UniProt P35968). Briefly: In vitro VEGFR-2 kinase inhibitory assay (VEGFR2 (KDR) Kinase Assay Kit).
Procedure: In vitro VEGFR‐2 kinase inhibitory assay
for their inhibitory activity against VEGFR‐2. Human BPS bioscience® VEGFR2 (KDR) Ki‐ nase Assay Kit (Enzyme‐Linked Immunosorbent Assay) was utilized in this test. The lu‐ minescent signal from the assay is correlated with the amount of ATP present and is in‐ versely correlated with the amount of kinase activity. The compounds were diluted to 100 μM in 10% DMSO and 5 ml of the diluted solution was added to a 50 ml reaction so that the final concentration of DMSO was 1% in all of reactions. All of the enzymatic reactions were conducted at 30 °C for 40 min. The 50 μl reaction mixture contains 40 μM Tris, pH 7.4, 10 μM MgCl2, 0.1 mg/ml BSA, 0.2 mg/ml Poly (Glu, Tyr) substrate, 10 μM ATP, and VEGFR‐2. After the enzymatic reaction, 50 ml of Kinase‐GloPlus Luminescence kinase as‐ say solution (Promega) was added to each reaction and the plate was incubated for 5 min at room temperature. Luminescence signal was measured using a BioTek Synergy 2 mi‐ croplate reader. The protein kinase assays used to determine IC50 values were performed using a ADP‐GloTM assay kit from Promega, which measures the generation of ADP by the protein kinase. Generation of ADP by the protein kinase reaction leads to an increase in luminescence signal in the presence of the ADP‐GloTM assay kit. The assay was started by incubating the reaction mixture in a 96‐well plate at 30 °C for 30 min. After the 30 mi n incubation period, the assay was terminated by the addition of 25 ml of ADP‐GloTM Re‐ agent (Promega). The 96‐well plate was shaken and then incubated for 40 min at ambient temperature; 50 ml of Kinase detection reagent was added, the 96‐well reaction plate wa s then read using the ADP‐Glo Luminescences Protocol on a GloMax plate reader (Promega: Catalog #E7031). The blank control was set up which included all the assay components, except the addition of appropriate substrates (replaced with equal volume of kinase assay buffer). The corrected activity for each protein kinase target was deter‐ mined by removing the blank control value. IC50 determination for inhibitor against VEGFR‐2 was estimated by generating a graph of log inhibitor vs normalized response with variables.
Data set [2] has as its system MCF-7 cell line. Briefly: MTT cytotoxicity assay, MCF-7. The conditions noted are these: for IC50: Homo sapiens, MCF7, MTT assay, mean ± SD of three experiments; for fold more potent than sunitinib, MCF-7: ratio of IC50 to sunitinib. Format: cell-based, human. The procedure: (§1) The cytotoxic activities against breast MCF-7 and liver HepG2 cancer cell lines for all the synthesized compounds 3a,b–17a,b were evaluated by MTT-based cytotoxicity assay. Sunitinib was selected as a reference standard in this study, and the results are presented as IC50 in Table 1.
(§2) The anticancer activities of the target compounds 3a,b–17a,b were quantitatively assessed using the MTT protocol against the MCF-7 and HepG2 cell lines, as described in the Supplementary Materials. […]
(§3) 4.2. Biological investigation
(§4) 4.2.1. In vitro cytotoxic activity assay
(§5) Citation: Abdelgawad, M.A.; Cell Line cells were obtained from the American Type Culture Collection. The cells Hayallah A.M.; Bukhari S.N.A.; were cultured using DMEM (Invitrogen/Life Technologies) supplemented with 10% FBS Musa A.; Elmowafy M.; (Hyclone,), 10 ug/ml of insulin (Sigma), and 1% penicillin‐streptomycin. All of the other Abdel‐Rahman, H.M.; chemicals and reagents were from Sigma or Invitrogen. Plate cells (cells density 1.2 – 1.8 Abd El‐Gaber, M.K. Design, × 10,000 cells/well) in a volume of 100μl complete growth medium + 100 μl of the tested Synthesis, Molecular Modeling, and compound per well in a 96‐well plate for 24 hours before the MTT assay. The tested com‐ Anticancer Evaluation of New pounds were dissolved in DMSO just before the test.
(§6) VEGFR‐2 Inhibitors Based on the Indolin‐2‐One Scaffold. 4.2.1.1. Cell culture protocol
(§7) Pharmaceuticals 2022, 15, x. The culture medium was removed to a centrifuge tube. The cell layer was briefly https://doi.org/10.3390/xxxxx rinsed with 5 mL of 0.25% (w/v) Trypsin and 3 mL of 0.53 mM EDTA solution to remove Academic Editor(s): Mary J. Meegan all traces of serum which contains Trypsin inhibitor. Next, 2.0 to 3.0 ml of Trypsin EDTA Received: 18 October 2022 solution was added to the flask and cells were observed under an inverted microscope Accepted: 9 November 2022 until the cell layer was dispersed (usually within 5 to 15 minutes). Then, 6.0 to 8.0 mL of Published: 14 November 2022 complete growth medium was added and cells aspirated by gently pipetting. The cell suspension was transferred to the centrifuge tube with the medium and cells from step 1, Publisher’s Note: MDPI stays neu‐and centrifuged at approximately 125 xg for 5 to 10 minutes. The supernatant was dis‐ tral with regard to jurisdictional carded and the cell pellet was suspended in fresh growth medium. Appropriate aliquots claims in published maps and institu‐ of the cell suspension were added to new culture vessels and incubated at 37°C for 24 hrs. tional affiliations. After treatment of cells with the serial concentrations of the compound to be tested, incu‐ bation was carried out for 48 h at 37 °C. The plates were examined under an inverted mi‐ croscope and proceeded for the MTT assay […]
(§8) Submitted for possible open access 4.2.1.2. […]
(§9) HepG‐2) were used in this test. At first, the cell lines were cultured in RPMI‐1640 medium Pharmaceuticals 2022, 15, x. https://doi.org/10.3390/xxxxx. www.mdpi.com/journal/pharmaceuticals […]
(§10) Pharmaceuticals 2022, 15, x FOR PEER REVIEW 2 of 22 with 10% fetal bovine serum. Antibiotics (100 units/ml penicillin and100 μg/ml strepto‐ mycin) were added at 37 °C in a 5% CO2 incubator. The cell lines were seeded in a 96‐well plate at a density of 1.0 x 10^4 cells / well at 37 °C for 48 h under 5% CO2. After incubation, the cells were treated with different concentrations of the synthesized compounds and incubated for 24 h. After 24 h of drug treatment, 20 μl of MTT solution (5mg/ml) was added and incubated for 4 h. 100 μl of dimethyl sulfoxide (DMSO) was added into each well to dissolve the formed purple formazan. The colored solution was measured and recorded at an absorbance of 570 nm using a plate reader (EXL 800, USA). The relative cell viability was calculated in percentage as (A570 of treated samples/A570 of untreated sam‐ ple) X 100. The half maximal inhibitory concentration (IC50) values were presented using […]
Background: Tetrazolium assays rely on reduction of a dye to a coloured formazan, in cell work by metabolically active cells.

The subject of data set [3] is HepG2 cell line. Briefly: MTT cytotoxicity assay, HepG2. Format: cell-based, human. The conditions noted are these: mean ± SD of three experiments. The procedure: as §1, §2, §3, §4, §5, §6, §7, §8, §9, §10
The test system of data set [4] is HepG2 cells. Set-up: method as in PMID 29901131. The following applies: HepG2 liver cancer cells; cited from earlier work.

Chain of VEGFR-2 (P35968 20-1356): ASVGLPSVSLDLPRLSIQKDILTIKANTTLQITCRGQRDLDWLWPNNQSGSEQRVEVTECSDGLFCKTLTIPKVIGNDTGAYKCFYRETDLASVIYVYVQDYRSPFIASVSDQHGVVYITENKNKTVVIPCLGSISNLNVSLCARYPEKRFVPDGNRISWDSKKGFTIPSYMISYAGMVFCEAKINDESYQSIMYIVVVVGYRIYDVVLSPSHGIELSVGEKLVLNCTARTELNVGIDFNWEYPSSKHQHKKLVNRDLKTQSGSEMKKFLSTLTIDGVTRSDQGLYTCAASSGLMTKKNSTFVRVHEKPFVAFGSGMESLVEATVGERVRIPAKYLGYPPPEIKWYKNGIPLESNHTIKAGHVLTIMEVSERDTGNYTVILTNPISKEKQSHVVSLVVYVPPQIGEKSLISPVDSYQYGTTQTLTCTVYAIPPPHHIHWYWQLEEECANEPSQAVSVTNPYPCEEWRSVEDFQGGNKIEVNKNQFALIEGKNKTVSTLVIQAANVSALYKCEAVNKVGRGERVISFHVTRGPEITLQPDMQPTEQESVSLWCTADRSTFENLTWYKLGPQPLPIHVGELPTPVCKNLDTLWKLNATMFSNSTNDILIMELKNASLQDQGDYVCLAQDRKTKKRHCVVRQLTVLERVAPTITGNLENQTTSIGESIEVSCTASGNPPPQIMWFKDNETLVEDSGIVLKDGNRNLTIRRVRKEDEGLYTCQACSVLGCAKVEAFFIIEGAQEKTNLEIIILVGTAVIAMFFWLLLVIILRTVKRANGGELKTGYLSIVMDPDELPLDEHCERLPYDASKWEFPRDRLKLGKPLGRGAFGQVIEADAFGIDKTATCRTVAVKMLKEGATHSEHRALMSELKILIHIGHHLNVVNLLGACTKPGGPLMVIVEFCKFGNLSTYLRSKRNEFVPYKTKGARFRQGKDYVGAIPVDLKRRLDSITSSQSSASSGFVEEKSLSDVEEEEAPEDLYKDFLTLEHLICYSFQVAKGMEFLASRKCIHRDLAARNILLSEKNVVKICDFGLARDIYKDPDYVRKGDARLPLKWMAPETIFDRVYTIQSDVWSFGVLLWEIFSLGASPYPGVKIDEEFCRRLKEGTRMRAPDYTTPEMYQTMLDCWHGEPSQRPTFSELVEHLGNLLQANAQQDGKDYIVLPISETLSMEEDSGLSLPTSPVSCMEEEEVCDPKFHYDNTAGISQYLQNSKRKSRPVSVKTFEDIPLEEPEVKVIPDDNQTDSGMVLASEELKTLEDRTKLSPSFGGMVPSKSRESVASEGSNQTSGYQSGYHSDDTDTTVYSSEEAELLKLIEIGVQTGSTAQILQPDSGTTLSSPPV

As to `COc1ccc(C=NNC(=O)c2ccc(N=C3C(=O)Nc4ccccc43)cc2)cc1` [Compound 10e, N′-(4-Methoxybenzylidene)-4-((2-oxoindolin-3-ylidene)amino)benzohydrazide], the melting point was 239 to 240 °C. For the same compound, the concentration for half-maximal inhibition (IC50) in data set [1] was 358 ± 19 nM. Besides, half-maximal inhibition in data set [2] (IC50) was put at 4620 ± 200 nM. This compound showed a 50% inhibitory concentration (IC50) in data set [3] (Homo sapiens, HepG2, MTT assay) of 8810 ± 430 nM.

`CNC(=S)NNC(=O)c1ccc(N=C2C(=O)Nc3ccc(F)cc32)cc1` [Compound 5b, 2-(4-((5-Fluoro-2-oxoindolin-3-ylidene)amino)benzoyl)-N-methylhydrazinecarbothioamide]: the melting point lay within 252 to 254 °C. The compound also showed an IC50 in data set [1] of 160 ± 8 nM. Besides, in data set [2], inhibition was half-maximal at 990 ± 40 nM (IC50) and the “fold more potent than sunitinib, MCF-7” value is 5 fold. The compound further showed an IC50 in data set [3] (Homo sapiens, HepG2, MTT assay) of 2620 ± 130 nM.

As to `CNC(=O)c1cc(Oc2ccc(NC(=O)Nc3ccc(Cl)c(C(F)(F)F)c3)cc2)ccn1` [Sorafenib], the “phase of cell cycle arrest” value in data set [4] was “S phase and G2/M phase”.

`O=C1Nc2ccccc2C1=Nc1ccc(-c2n[nH]c(=S)o2)cc1` [Compound 15a, 3-((4-(5-Thioxo-4,5-dihydro-1,3,4-oxadiazol-2-yl)phenyl)imino)indolin-2-one] had a melting point of 219 to 220 °C. Also, half-maximal inhibition in data set [1] (IC50) required 180 ± 9 nM. Moreover, in data set [2], the IC50 is 2770 ± 100 nM. For the same compound, the IC50 in data set [3] (Homo sapiens, HepG2, MTT assay) turned out to be 2300 ± 180 nM. Further, the IC50 in data set [3] (MTT assay) stood at 2300 ± 180 nM.

For the compound `O=C1Nc2ccc(F)cc2C1=Nc1ccc(C(=O)NN=Cc2ccc(Br)cc2)cc1` [Compound 10g, N′-(4-Bromobenzylidene)-4-((5-fluoro-2-oxoindolin-3-ylidene)amino)benzohydrazide], the melting point was 227 to 229 °C. Further, in data set [1], half-maximal inhibition (IC50) was put at 87 ± 4 nM. Moreover, the “fold more potent than sunitinib, VEGFR-2 inhibition” value in data set [1] (ratio of IC50 to sunitinib) turned out to be 1.6 fold. Also, in data set [2], the half-maximal inhibitory concentration (IC50) was determined as 740 ± 30 nM and the “fold more potent than sunitinib, MCF-7” value is reported as 6 fold. In addition, in data set [3] (Homo sapiens, HepG2, MTT assay), the concentration for half-maximal inhibition (IC50) was 2790 ± 140 nM.

On to `O=C1Nc2ccccc2C1=Nc1ccc(C(=O)NN=Cc2ccc(Cl)cc2)cc1` [Compound 10b, N′-(4-Chlorobenzylidene)-4-((2-oxoindolin-3-ylidene)amino)benzohydrazide], for which the melting point was 237 to 239 °C. Moreover, in data set [2], half-maximal inhibition (IC50) required 23800 ± 1210 nM. For the same compound, it took 33800 ± 1650 nM to reach half-maximal inhibition in data set [3] (Homo sapiens, HepG2, MTT assay) (IC50).

`Cc1ccc(C=NNC(=O)c2ccc(N=C3C(=O)Nc4ccccc43)cc2)cc1` [Compound 10d, N′-(4-Methylbenzylidene)-4-((2-oxoindolin-3-ylidene)amino)benzohydrazide] had a melting point of 234 to 236 °C. The compound also came in with a 50% inhibitory concentration (IC50) in data set [2] of 13700 ± 400 nM. The compound also showed an IC50 in data set [3] (Homo sapiens, HepG2, MTT assay) of 21400 ± 1050 nM.

Consider `O=C1Nc2ccccc2C1=Nc1ccc(C(=O)NN=Cc2cccc([N+](=O)[O-])c2)cc1` [Compound 10c, N′-(3-Nitrobenzylidene)-4-((2-oxoindolin-3-ylidene)amino)benzohydrazide], for which the melting point lay within 200 to 201 °C. This compound also had a half-maximal inhibitory concentration (IC50) in data set [2] of 14600 ± 710 nM. This compound also gave a half-inhibitory concentration (IC50) in data set [3] (Homo sapiens, HepG2, MTT assay) of 21000 ± 1020 nM.

In the case of `CN(C)c1ccc(C=NNC(=O)c2ccc(N=C3C(=O)Nc4ccc(F)cc43)cc2)cc1` [Compound 10f, N′-(4-(Dimethylamino)benzylidene)-4-((5-fluoro-2-oxoindolin-3-ylidene)amino)benzohydrazide], the melting point was in the range of 202 to 204 °C. Moreover, it took 11000 ± 590 nM to reach half-maximal inhibition in data set [2] (IC50). The IC50 in data set [3] (Homo sapiens, HepG2, MTT assay) turned out to be 19200 ± 940 nM.

For orientation: melting point means the temperature of the solid-liquid transition. One may read the IC50 as the concentration at which inhibition is half-maximal. A low value points to greater potency in that assay.

The record behind these values is paper PMC9698773, “Design, Synthesis, Molecular Modeling, and Anticancer Evaluation of New VEGFR-2 Inhibitors Based on the Indolin-2-One Scaffold” (Pharmaceuticals, 2022).
